# Measured values as given in US20060281771A1, “SYNERGISTIC MODULATION OF FLT3 KINASE USING AMINOQUINOLINE AND AMINOQUINAZOLINE KINASE MODULATORS” (priority 2005, published 2006).
# Target: T1, wild-type FLT3 phosphorylation in Baf3 FLT3 cells (Homo sapiens, UniProt P36888)
# T1 construct: host or cells: Baf3 (murine B cell lymphoma line)
# T1 sequence (P36888 27-993): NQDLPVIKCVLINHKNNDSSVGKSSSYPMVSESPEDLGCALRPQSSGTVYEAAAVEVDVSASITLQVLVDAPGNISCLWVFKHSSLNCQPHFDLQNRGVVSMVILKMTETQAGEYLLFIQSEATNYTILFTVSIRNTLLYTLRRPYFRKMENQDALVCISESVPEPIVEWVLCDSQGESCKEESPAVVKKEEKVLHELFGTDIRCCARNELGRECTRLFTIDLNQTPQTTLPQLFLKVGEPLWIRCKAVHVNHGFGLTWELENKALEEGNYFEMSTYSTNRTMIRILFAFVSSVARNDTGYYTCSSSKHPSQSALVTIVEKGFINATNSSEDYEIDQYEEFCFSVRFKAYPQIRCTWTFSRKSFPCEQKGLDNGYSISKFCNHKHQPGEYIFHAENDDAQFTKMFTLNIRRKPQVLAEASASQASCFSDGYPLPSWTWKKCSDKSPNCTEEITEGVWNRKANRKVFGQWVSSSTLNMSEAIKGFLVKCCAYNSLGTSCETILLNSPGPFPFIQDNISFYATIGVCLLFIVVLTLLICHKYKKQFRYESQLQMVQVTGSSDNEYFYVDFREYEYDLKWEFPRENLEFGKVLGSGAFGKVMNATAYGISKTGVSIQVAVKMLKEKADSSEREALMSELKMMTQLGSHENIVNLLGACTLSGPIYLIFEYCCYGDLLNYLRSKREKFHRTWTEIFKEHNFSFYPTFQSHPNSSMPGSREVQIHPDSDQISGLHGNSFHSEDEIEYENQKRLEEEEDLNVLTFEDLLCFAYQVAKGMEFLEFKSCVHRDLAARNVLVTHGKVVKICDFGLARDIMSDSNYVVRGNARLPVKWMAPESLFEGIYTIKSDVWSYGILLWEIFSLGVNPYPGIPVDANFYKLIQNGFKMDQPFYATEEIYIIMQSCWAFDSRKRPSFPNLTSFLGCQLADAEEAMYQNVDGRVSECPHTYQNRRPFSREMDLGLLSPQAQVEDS
# Assay: Cell-based FLT3 receptor ELISA
# Conditions: FLT ligand-induced FLT3 phosphorylation
# Protocol: Specific cellular inhibition of FLT ligand-induced wild-type FLT3 phosphorylation was measured in the following manner: Baf3 FLT3 cells overexpressing the FLT3 receptor were obtained from Dr. Michael Heinrich (Oregon Health and Sciences University). The Baf3 FLT3 cell lines were created by stable transfection of parental Baf3 cells (a murine B cell lymphoma line dependent on the cytokine IL-3 for growth) with wild-type FLT3. Cells were selected for their ability to grow in the absence of IL-3 and in the presence of FLT3 ligand.
# Baf3 cells were maintained in RPMI 1640 with 10% FBS, penn/strep and 10 ng/ml FLT ligand at 37° C., 5% CO2. To measure direct inhibition of the wild-type FLT3 receptor activity and phosphorylation a sandwich ELISA method was developed similar to those developed for other RTKs (see Sadick, M D, Sliwkowski, M X, Nuijens, A, Bald, L, Chiang, N, Lofgren, J A, Wong W L T. Analysis of Heregulin-Induced ErbB2 Phosphorylation with a High-Throughput Kinase Receptor Activation Enzyme-Linked Immunsorbent Assay, Analytical Biochemistry. 1996; 235:207-214 and Baumann C A, Zeng L, Donatelli R R, Maroney A C. Development of a quantitative, high-throughput cell-based enzyme-linked immunosorbent assay for detection of colony-stimulating factor-1 receptor tyrosine kinase inhibitors. J Biochem Biophys Methods. 2004; 60:69-79.). 200 μL of Baf3FLT3 cells (1×10^6/mL) were plated in 96 well dishes in RPMI 1640 with 0.5% serum and 0.01 ng/mL IL-3 for 16 hours prior to 1 hour compound or DMSO vehicle incubation. Cells were treated with 100 ng/mL Flt ligand (R&D Systems Cat# 308-FK) for 10 min. at 37° C. Cells were pelleted, washed and lysed in 100 ul lysis buffer (50 mM Hepes, 150 mM NaCl, 10% Glycerol, 1% Triton-X-100, 10 mM NaF, 1 mM EDTA, 1.5 mM MgCl2, 10 mM NaPyrophosphate) supplemented with phosphatase (Sigma Cat# P2850) and protease inhibitors (Sigma Cat #P8340). Lysates were cleared by centrifugation at 1000×g for 5 minutes at 4° C. Cell lysates were transferred to white wall 96 well microtiter (Costar #9018) plates coated with 50 ng/well anti-FLT3 antibody (Santa Cruz Cat# sc-480) and blocked with SeaBlock reagent (Pierce Cat#37527). Lysates were incubated at 4° C. for 2 hours. Plates were washed 3× with 200 ul/well PBS/0.1% Triton-X-100. Plates were then incubated with 1:8000 dilution of HRP-conjugated anti-phosphotyrosine antibody (Clone 4G10, Upstate Biotechnology Cat#16-105) for 1 hour at room temperature. Plates were washed 3× with 200 ul/well PBS/0.1% Triton-X-100. Signal detection with Super Signal Pico reagent (Pierce Cat#37070) was done according to manufacturer's instruction with a Berthold microplate luminometer. All data points are an average of triplicate samples. […] Inhibition and IC50 data analysis was done with GraphPad Prism using a non-linear regression fit with a multiparamater, sigmoidal dose-response (variable slope) equation.
row,IC50,Structure (SMILES)
1,360 nM,"COc1cc2ncnc(N3CCC(NC(=O)Nc4ccc(OC(C)C)cc4)C3)c2cc1OC (centres unmarked) [Compound 8, 1-[1-(6,7-Dimethoxy-quinazolin-4-yl)-pyrrolidin-3-yl]-3-(4-isopropoxy-phenyl)-urea]"
2,64 nM,"COc1cc2ncnc(N3CCC(OC(=O)Nc4ccc(C(C)C)cc4)C3)c2cc1OC (centres unmarked) [Compound 2, (4-Isopropyl-phenyl)-carbamic acid 1-(6,7-dimethoxy-quinazolin-4-yl)-pyrrolidin-3-yl ester]"
3,16 nM,"COc1cc2ncnc(N3CCC(OC(=O)Nc4ccc(C(C)C)cc4)CC3)c2cc1OC [Compound 1, (4-Isopropyl-phenyl)-carbamic acid 1-(6,7-dimethoxy-quinazolin-4-yl)-piperidin-4-yl ester]"
4,1200 nM,"COc1cc2ncc(C#N)c(N3CCC(OC(=O)Nc4ccc(OC(C)C)cc4)C3)c2cc1OC (centres unmarked) [Compound 32, (4-Isopropoxy-phenyl)-carbamic acid 1-(3-cyano-6,7-dimethoxy-quinolin-4-yl)-pyrrolidin-3-yl ester]"
5,140 nM,"COc1cc2ncnc(N3CCC(NC(=O)Nc4ccc(C(C)C)cc4)C3)c2cc1OC (centres unmarked) [Compound 7, 1-[1-(6,7-Dimethoxy-quinazolin-4-yl)-pyrrolidin-3-yl]-3-(4-isopropyl-phenyl)-urea]"
6,1900 nM,"COc1cc2ncnc(N3CCCC(NC(=O)Nc4ccc(C(C)C)cc4)C3)c2cc1OC (centres unmarked) [Compound 28, 1-[1-(6,7-Dimethoxy-quinazolin-4-yl)-piperidin-3-yl]-3-(4-isopropyl-phenyl)-urea]"
7,43 nM,"CC(C)c1ccc(NC(=O)OC2CCN(c3ncnc4ccc(I)cc34)C2)cc1 (centres unmarked) [Compound 20, (4-Isopropyl-phenyl)-carbamic acid 1-(6-iodo-quinazolin-4-yl)-pyrrolidin-3-yl ester]"
8,210 nM,"COc1cc2ncnc(N3CCC(N(C)C(=O)Nc4ccc(C(C)C)cc4)C3)c2cc1OC (centres unmarked) [Compound 19, 1-[1-(6,7-Dimethoxy-quinazolin-4-yl)-pyrrolidin-3-yl]-3-(4-isopropyl-phenyl)-1-methyl-urea]"
9,6 nM,COc1cc2ncnc(N3CCCC(COC(=O)Nc4ccc(C(C)C)cc4)C3)c2cc1OC (centres unmarked) [Compound 4]
10,331 nM,"COc1cc2ncc(C#N)c(N3CCC(NC(=O)Nc4ccc(C(C)C)cc4)C3)c2cc1OC (centres unmarked) [Compound 26, 1-[1-(3-Cyano-6,7-dimethoxy-quinolin-4-yl)-pyrrolidin-3-yl]-3-(4-isopropyl-phenyl)-urea]"
11,49 nM,"COc1cc2ncnc(N3CCC(CNC(=O)Nc4ccc(C(C)C)cc4)CC3)c2cc1OC [Compound 18, 1-[1-(6,7-Dimethoxy-quinazolin-4-yl)-piperidin-4-ylmethyl]-3-(4-isopropyl-phenyl)-urea]"
12,6 nM,"COc1cc2ncnc(N3CCC(CC(=O)Nc4ccc(C(C)C)cc4)CC3)c2cc1OC [Compound 5, 2-[1-(6,7-Dimethoxy-quinazolin-4-yl)-piperidin-4-yl]-N-(4-isopropyl-phenyl)-acetamide]"
13,176 nM,"COc1cc2ncnc(N3CCC(C(=O)Nc4ccc(OC(C)C)cc4)CC3)c2cc1OC [Compound 23, 1-(6,7-Dimethoxy-quinazolin-4-yl)-piperidine-4-carboxylic acid (4-isopropoxy-phenyl)-amide]"
14,1100 nM,"COc1cc2ncc(C#N)c(N3CCC(OC(=O)Nc4ccc(C(C)C)cc4)C3)c2cc1OC (centres unmarked) [Compound 37, (4-Isopropyl-phenyl)-carbamic acid 1-(3-cyano-6,7-dimethoxy-quinolin-4-yl)-pyrrolidin-3-yl ester]"
15,320 nM,"COc1cc2ncnc(N3CCC(OC(=O)Nc4ccc(OC(C)C)cc4)C3)c2cc1OC (centres unmarked) [Compound 15, (4-Isopropoxy-phenyl)-carbamic acid 1-(6,7-dimethoxy-quinazolin-4-yl)-pyrrolidin-3-yl ester]"
16,163 nM,"CCN(CC)CC#Cc1ccc2ncnc(N3CCC(OC(=O)Nc4ccc(C(C)C)cc4)C3)c2c1 (centres unmarked) [Compound 17, (4-Isopropyl-phenyl)-3-carbamic acid 1-[6-(3-diethylamino-prop-1-ynyl)-quinazolin-4-yl]-pyrrolidin-3-yl ester]"
17,3100 nM,"COc1cc2ncc(C#N)c(N3CCC(NC(=O)Nc4ccc(OC(C)C)cc4)C3)c2cc1OC (centres unmarked) [Compound 29, 1-[1-(3-Cyano-6,7-dimethoxy-quinolin-4-yl)-pyrrolidin-3-yl]-3-(4-isopropoxy-phenyl)-urea]"
18,89 nM,"COc1cc2ncnc(N3CCC(C(=O)Nc4ccc(C(C)C)cc4)CC3)c2cc1OC [Compound 13, 1-(6,7-Dimethoxy-quinazolin-4-yl)-piperidine-4-carboxylic acid (4-isopropyl-phenyl)-amide]"
19,1100 nM,"COc1cc2ncnc(N3CCCC(OC(=O)Nc4ccc(C(C)C)cc4)C3)c2cc1OC (centres unmarked) [Compound 31, (4-Isopropyl-phenyl)-carbamic acid 1-[1-(6,7-dimethoxy-quinazolin-4-yl)-piperidin-3-yl]ester]"
20,27 nM,COc1cc2ncnc(N3CCCC3COC(=O)Nc3ccc(C(C)C)cc3)c2cc1OC (centres unmarked) [Compound 9]
21,559 nM,"COc1cc2ncnc(N3CCCCC3COC(=O)Nc3ccc(C(C)C)cc3)c2cc1OC (centres unmarked) [Compound 33, (4-Isopropyl-phenyl)-carbamic acid 1-(6,7-dimethoxy-quinazolin-4-yl)-piperidin-2-ylmethyl ester]"
22,242 nM,"CC(C)c1ccc(NC(=O)NC2CCN(c3ncnc4ccccc34)C2)cc1 (centres unmarked) [Compound 16, 1-(4-Isopropyl-phenyl)-3-(1-quinazolin-4-yl-pyrrolidin-3-yl)urea]"
23,63 nM,"COc1cc2ncnc(N3CCC(NC(=O)Cc4ccc(C(C)C)cc4)CC3)c2cc1OC [Compound 21, N-[1-(6,7-Dimethoxy-quinazolin-4-yl)-piperidin-4-yl]-2-(4-isopropyl-phenyl)-acetamide]"
24,1300 nM,"COc1cc2ncnc(N3CCC(N(C)C(=O)Nc4ccc(OC(C)C)cc4)C3)c2cc1OC (centres unmarked) [Compound 36, 1-[1-(6,7-Dimethoxy-quinazolin-4-yl)-pyrrolidin-3-yl]-3-(4-isopropoxy-phenyl)-1-methyl-urea]"
25,118 nM,"COc1cc2ncnc(N3CCC(OC(=O)Nc4ccc(OC(C)C)cc4)CC3)c2cc1OC [Compound 3, (4-Isopropoxy-phenyl)-carbamic acid 1-(6,7-dimethoxy-quinazolin-4-yl)-piperidin-4-yl ester]"

row,Structure (SMILES),IC50
1,"COc1cc2ncnc(N3CCC(OC(=O)Nc4ccc(OC5CCC5)nc4)C3)c2cc1OC (centres unmarked) [Compound 12, (6-Cyclobutoxy-pyridin-3-yl)-carbamic acid 1-(6,7-dimethoxy-quinazolin-4-yl)-pyrrolidin-3-yl ester]",11 nM
